The values below are quoted from earlier work in US9364479B2, “Use of a receptor-type kinase modulator for treating polycystic kidney disease” (SYMPHONY EVOLUTION, INC., priority 2010, dated 2016).

In series [1] the test system is bpk mice or PCK rat. Conditions: cited from earlier work.
Series [2] relates to PKD model. Conditions: in vivo; cited from earlier work.
For series [3], the system named is bpk mice. Conditions: cited from earlier work.

Turning to `COc1cc(Nc2c(C#N)cnc3cc(OCCCN4CCN(C)CC4)c(OC)cc23)c(Cl)cc1Cl` [SKI-606], the “renal cyst formation and biliary duct abnormalities, in words” value in series [1] is “ameliorated renal cyst formation and biliary duct abnormalities”.

Regarding `CCOc1cc2ncc(C#N)c(Nc3ccc(F)c(Cl)c3)c2cc1NC(=O)/C=C/CN(C)C` [EKB-569], in series [2], the “cyst formation and renal function, in words” value was “effective in reducing cyst formation and maintaining normal renal function”. Take `CC#CC(=O)Nc1ccc2ncnc(Nc3cccc(Br)c3)c2c1` [EKI-785]: in series [3], the “progression of PKD, in words” value is listed as “effective in preventing the progression of PKD”.
